Test results from PubChem BioAssay AID652057 (Broad Institute, 2013).
Values joined by “and” are separate entries in the source; they are usually repeats but may differ in a detail not shown here. Equal entries are not always repeated.

Test system: HeLa-JRFL Env/CEM21 cell fusion, luciferase
Experiment: blockers of HIV-1 envelope-mediated cell-cell fusion – cherry-pick, dose response (AID 652057)

Row | Compound | AC50
1 | C[C@H](CO)N1C[C@H](C)[C@H](CN(C)S(=O)(=O)c2ccccc2)Oc2ncc(/C=C/c3ccccc3)cc2C1=O | 9.21 µM and 1.6 µM
2 | O=C(C[C@H]1C[C@H]2c3cc(NC(=O)c4ccc5c(c4)OCO5)ccc3O[C@H]2[C@H](CO)O1)NCc1ccc(Oc2ccccc2)cc1 | 35.1 µM
